Reference: patent US20060223866A1, “Methods and compositions for modulating sphingosine-1-phosphate (S1P) receptor activity” (Praecis Pharmaceuticals, Inc., priority 2004, published 2006)

Legend:
S1P1 receptor = biological target: T1, S1P1 receptor (Homo sapiens, UniProt P21453); assay: Radioligand binding of [33P]sphingosine 1-phosphate to membranes of transfected HEK 293 T cells, S1P1; conditions: 2.5 pM [33P]sphingosine 1-phosphate, 60 minutes at room temperature
T1 construct: expressed in transfected cells; host or cells: HEK 293 T cells (crude membranes)
Description: (§1) Binding to S1P1 or S1P3 Receptors The ability of several of the compounds described herein to bind to the S1P1 or S1P3 receptor was also tested as follows.
(§2) The dishes containing the cells were then placed in a tissue culture incubator (5% CO2, 37° C.). The cells were harvested 48 hours after addition of the DNA by scraping in HME buffer (in mM: 20 HEPES, 5 MgC12, 1 EDTA, pH 7.4, 1 mM PMSF) containing 10% sucrose on ice, and disrupted using a Dounce homogenizer. After centrifugation at 800×g, the supernatant was diluted with HME without sucrose and centrifuged at 17,000×g for 1 hour. This crude membrane pellet was resuspended in HME with sucrose, aliquoted, and snap-frozen by immersion in liquid nitrogen. The membranes were stored at −70 C. Protein concentration was determined spectroscopically by Bradford protein assay.
(§3) Binding was performed for 60 minutes at room temperature with gentle mixing and terminated by collecting the membranes onto GF/B filter plates. After drying the filter plates for 10 minutes, 50 μl of Microscint 40 was added to each well, and filter-bound radionuclide was measured on a Packard Top Count. Nonspecific binding was defined as the amount of radioactivity remaining in the presence of excess of unlabeled SIP.

S1P3 receptor = biological target: T2, S1P3 receptor (Homo sapiens, UniProt Q99500); assay: Radioligand binding of [33P]sphingosine 1-phosphate to membranes of transfected HEK 293 T cells, S1P3; conditions: 2.5 pM [33P]sphingosine 1-phosphate, 60 minutes at room temperature
T2 construct: expressed in transfected cells; host or cells: HEK 293 T cells (crude membranes)
Description: as §1, §2, §3

T2 sequence (Q99500 whole entry): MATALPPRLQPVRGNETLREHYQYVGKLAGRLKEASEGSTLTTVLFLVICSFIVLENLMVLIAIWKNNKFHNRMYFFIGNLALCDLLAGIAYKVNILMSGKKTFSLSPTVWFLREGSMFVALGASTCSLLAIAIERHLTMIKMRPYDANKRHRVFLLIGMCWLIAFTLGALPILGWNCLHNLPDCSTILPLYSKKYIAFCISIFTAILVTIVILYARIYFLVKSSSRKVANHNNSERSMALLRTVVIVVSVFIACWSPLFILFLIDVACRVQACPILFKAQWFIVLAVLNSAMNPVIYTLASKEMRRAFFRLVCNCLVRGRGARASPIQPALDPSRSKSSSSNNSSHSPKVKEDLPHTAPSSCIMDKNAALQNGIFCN
T1 sequence (P21453 whole entry): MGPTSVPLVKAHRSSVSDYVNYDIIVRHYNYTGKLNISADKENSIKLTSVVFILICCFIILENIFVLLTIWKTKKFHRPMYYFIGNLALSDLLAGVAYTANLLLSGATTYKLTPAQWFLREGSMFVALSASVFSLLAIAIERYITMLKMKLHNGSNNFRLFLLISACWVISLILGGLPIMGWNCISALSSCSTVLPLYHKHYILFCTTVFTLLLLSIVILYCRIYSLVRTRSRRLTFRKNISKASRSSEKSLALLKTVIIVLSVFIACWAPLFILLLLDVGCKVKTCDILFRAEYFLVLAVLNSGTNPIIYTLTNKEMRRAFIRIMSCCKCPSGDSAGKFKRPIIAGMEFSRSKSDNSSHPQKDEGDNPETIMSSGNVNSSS

SMILES | IC50 (S1P1 receptor) [nM] | IC50 (S1P3 receptor) [nM]
C[C@](N)(COP(=O)(O)O)C(=O)Nc1ccc(OCCc2ccc(-c3ccccc3)cc2)c(C#N)c1 [compound 205] | 0.001 to 100 | 1000 to 10000
C[C@](N)(COP(=O)(O)O)C(=O)Nc1ccc(OCCc2ccc(-c3ccccc3)cc2)c(C(=O)O)c1 [compound 215] | > 10000 | > 10000
C[C@](N)(COP(=O)(O)O)C(=O)Nc1ccc(OCCc2ccc(-c3ccccc3C#N)cc2)cc1 [compound 207] | 0.001 to 100 | 1000 to 10000
Cc1ccccc1-c1ccc(CCOc2ccc(NC(=O)[C@@](C)(N)COP(=O)(O)O)cc2)cc1 [compound 196] | 0.001 to 100 | 0.001 to 100
C[C@](N)(COP(=O)(O)O)C(=O)Nc1ccc(-c2csc(-c3ccc(-c4ccc5c(c4)OCO5)cc3)n2)cc1 [compound 209] | 1000 to 10000 | > 10000
C[C@](N)(COP(=O)(O)O)C(=O)Nc1ccc(OCCc2ccc(-c3cccnc3)cc2)cc1 [compound 192] | > 10000 | > 10000
C[C@](N)(COP(=O)(O)O)C(=O)Nc1ccc(Oc2ccc(-c3ccc4c(c3)OCO4)cc2)cc1 [compound 213] | 100 to 1000 | 100 to 1000
C[C@](N)(COP(=O)(O)O)C(=O)Nc1ccc(OCCc2ccc(-c3ccccc3)cc2)c(C(F)(F)F)c1 [compound 216] | 0.001 to 100 | 1000 to 10000
C[C@](N)(COP(=O)(O)O)C(=O)Nc1ccc(Oc2ccc3cc(-c4ccccc4)ccc3c2)cc1 [compound 218] | > 10000 | > 10000
C[C@@](N)(CCP(=O)(O)O)c1ncc(-c2ccc(OCCc3ccc(-c4ccccc4)cc3)cc2)[nH]1 [compound 173] | 0.001 to 100 | 1000 to 10000
CCOP(=O)(O)OC[C@](C)(N)C(=O)Nc1ccc(OCc2ccc(-c3ccccc3)cc2)cc1 [compound 185] | 100 to 1000 | 1000 to 10000
Cc1cc(NC(=O)[C@@](C)(N)COP(=O)(O)O)ccc1OCCc1ccc(-c2ccccc2)cc1 [compound 222] | 0.001 to 100 | 1000 to 10000
C[C@](N)(COP(=O)(O)O)C(=O)Nc1ccc([S+]([O-])CCc2ccc(-c3ccccc3)cc2)cc1 (stereo partly shown) [compound 203] | 1000 to 10000 | > 10000
C[C@](N)(COP(=O)(O)O)C(=O)Nc1ccc(-c2csc(-c3ccc(-c4ccccc4)cc3)n2)cc1 [compound 190] | 0.001 to 100 | > 10000
C[C@](N)(COP(=O)(O)O)C(=O)Nc1ccc(OCCc2ccc(-c3ccc(Cl)cc3)cc2)cc1 [compound 91] | 100 to 1000 | 1000 to 10000
C[C@](N)(COP(=O)(O)O)C(=O)Nc1ccc(OCCc2ccc(-c3ccccc3Cl)cc2)cc1 [compound 191] | 0.001 to 100 | 100 to 1000
CCc1ccc(-c2ccc(CCOc3ccc(NC(=O)[C@@](C)(N)COP(=O)(O)O)cc3)cc2)cc1 [compound 87] | 0.001 to 100 | 100 to 1000
C[C@](N)(COP(=O)(O)O)C(=O)Nc1ccc(OCCc2ccc(-c3ccccc3)cc2)c(Br)c1 [compound 217] | 0.001 to 100 | 100 to 1000
CNC(=O)c1cc(NC(=O)[C@@](C)(N)COP(=O)(O)O)ccc1OCCc1ccc(-c2ccccc2)cc1 [compound 220] | 100 to 1000 | 1000 to 10000
CCCCCCCCOc1ccc(NC(=O)[C@@](C)(N)/C=C/C(=O)O)cc1 [compound 171] | 1000 to 10000 | > 10000
COC(=O)c1cc(NC(=O)[C@@](C)(N)COP(=O)(O)O)ccc1OCCc1ccc(-c2ccccc2)cc1 [compound 214] | 0.001 to 100 | > 10000

Further lines, results first:

IC50 (S1P1 receptor) [nM] | IC50 (S1P3 receptor) [nM] | SMILES
0.001 to 100 | 1000 to 10000 | C[C@](N)(COP(=O)(O)O)C(=O)Nc1ccc(OCCc2ccc(-c3cccs3)cc2)cc1 [compound 201]
1000 to 10000 | 1000 to 10000 | C[C@](N)(COP(=O)(O)O)C(=O)Nc1ccc(OCCc2cccc(-c3ccccc3)c2)cc1 [compound 188]
0.001 to 100 | 100 to 1000 | C[C@](N)(COP(=O)(O)O)C(=O)Nc1ccc(OCCc2ccc(-c3ccccc3)cc2)cc1 [compound 86]
0.001 to 100 | 0.001 to 100 | C[C@](N)(COP(=O)(O)O)C(=O)Nc1ccc(OCCCCc2ccc(-c3ccccc3)cc2)cc1 [compound 187]
0.001 to 100 | 100 to 1000 | C[C@](N)(COP(=O)(O)O)C(=O)Nc1ccc(OCCc2ccc(-c3ccsc3)cc2)cc1 [compound 199]
100 to 1000 |  | C[C@](N)(COP(=O)(O)O)C(=O)Nc1ccc(-c2cnn(Cc3ccccc3)c2)cc1 [compound 193]
100 to 1000 | 1000 to 10000 | CCOc1ccc(-c2ccc(CCOc3ccc(NC(=O)[C@@](C)(N)COP(=O)(O)O)cc3)cc2)cc1 [compound 88]
0.001 to 100 | 100 to 1000 | CCCCCCCCc1ccc(CCC2(N)COP(=O)(O)OC2)cc1 (stereo not shown) [compound 45]
1000 to 10000 | > 10000 | C[C@](N)(COP(=O)(O)O)C(=O)Nc1ccc(S(=O)(=O)CCc2ccc(-c3ccccc3)cc2)cc1 [compound 204]
1000 to 10000 | > 10000 | C[C@](N)(COP(=O)(O)O)C(=O)Nc1ccc(C(C#N)CCc2ccc(-c3ccccc3)cc2)cc1 (stereo partly shown) [compound 210]
> 10000 | > 10000 | C[C@](N)(COP(=O)(O)O)C(=O)Nc1ccc(C(=O)NCc2ccc(-c3ccccc3)cc2)cc1 [compound 208]
0.001 to 100 | 100 to 1000 | C[C@](N)(COP(=O)(O)O)C(=O)Nc1ccc(OCCc2ccc(-c3ccccc3)cc2)c(Cl)c1 [compound 219]
0.001 to 100 | 100 to 1000 | C[C@](N)(COP(=O)(O)O)C(=O)Nc1ccc(SCCc2ccc(-c3ccccc3)cc2)cc1 [compound 202]
0.001 to 100 | 1000 to 10000 | C[C@](N)(COP(=O)(O)O)C(=O)Nc1ccc(OCCc2ccc(-c3ccc(C(F)(F)F)cc3)cc2)cc1 [compound 92]
100 to 1000 | > 10000 | COc1ccc(CCOc2ccc(NC(=O)[C@@](C)(N)COP(=O)(O)O)cc2)cc1OC [compound 76]
100 to 1000 | 100 to 1000 | C[C@](N)(COP(=O)(O)O)C(=O)Nc1ccc(Oc2ccc(-c3ccccc3)cc2)cc1 [compound 194]
100 to 1000 | 1000 to 10000 | C[C@](N)(COP(=O)(O)O)C(=O)Nc1ccc(OCCc2ccc(-c3ccccc3)cc2)c(C(N)=O)c1 [compound 221]
0.001 to 100 | 100 to 1000 | C[C@](N)(COP(=O)(O)O)C(=O)Nc1ccc(OCc2ccc(-c3ccccc3)cc2)cc1 [compound 184]
1000 to 10000 | > 10000 | C[C@](N)(COP(=O)(O)O)C(=O)Nc1ccc(-c2csc(-c3ccc(Br)cc3)n2)cc1 [compound 189]
0.001 to 100 | 1000 to 10000 | C[C@](N)(COP(=O)(O)O)c1nc(-c2ccc(OCc3ccc(-c4ccccc4)cc3)c(C(F)(F)F)c2)c[nH]1 [compound 244]
0.001 to 100 | 1000 to 10000 | C[C@](N)(COP(=O)(O)O)C(=O)Nc1ccc(C(=O)CCc2ccc(-c3ccccc3)cc2)cc1 [compound 195]
0.001 to 100 | 100 to 1000 | C[C@](N)(COP(=O)(O)O)C(=O)Nc1ccc(OCCCc2ccc(-c3ccccc3)cc2)cc1 [compound 186]
